According to patent US20240228572A1 (i2o Therapeutics, Inc., priority 2020, published 2024):
*1 amine or outer side, *2 acyl side, *3 side chain or, on linkers, in order; H or OH if unused. Where a SMILES comes first, the peptide text is derived from it. Side-chain parts run from the residue outwards. [ ]: non-standard residue; d: D form. The star is where a group is joined. C20 diacid = O=C(O)CCCCCCCCCCCCCCCCCCC(=O)*; γGlu = O=C(O)[C@H](CCC(=O)[*:2])N[*:1]; AEEA = NCCOCCOCC(=O)O; Aib = CC(C)(N)C(=O)O

Tests used:
[1] = system: cynomolgus monkey GCGR; assay: cAMP accumulation assay, CHO-K1 cells expressing cynomolgus monkey GCGR; assay type: cell-based; settings: cyno glucagon receptor
Text: In the presence of the non-specific cAMP/cGMP phosphodiesterase inhibitor, 3-isobutyl-1-methylxanthine (IBMX), accumulating cAMP can be measured in vitro using common detection methods. Thus, it is possible to estimate an in vitro potency (pEC50) for peptides activating each of these receptors using fit dose-response curves for cAMP accumulation.
A cDNA fragment encoding the full-length open reading frame of the cynomolgus monkey GLP-1R (Genebank accession #XM_028847603 was cloned into pcDNA3.1+ for expression in CHO-K1 cells. A cDNA fragment encoding the full-length open reading frame of the human GCGR (Genebank accession #NM_000160 was cloned into pcDNA3.1+ for expression in CHO-K1 cells. A cDNA fragment encoding the full-length open reading frame of the rat GCGR (Genebank accession #NM_12091 was cloned into pcDNA3.1+ for expression in CHO-K1 cells. A cDNA fragment encoding the full-length open reading frame of the cynomolgus monkey GCGR (Genebank accession #XM_005585255 was cloned into pcDNA3.1+ for expression in CHO-K1 cells. […]
Peptides were serially diluted 4-fold in assay buffer to final concentrations ranging from 1×10^−9 M to 9.5×10^−16 M. Two assay controls consisting of 50 mcM forskolin (cAMP system maximum) or assay buffer only (cAMP system minimum) were also prepared. […] Plates were read on an Envision fluorescent plate reader (PerkinElmer). […]

[2] = target: T1, hGIPR (Homo sapiens, UniProt P48546); assay: cAMP accumulation assay, hGIPR; assay type: cell-based
T1 sequence (P48546 22-466): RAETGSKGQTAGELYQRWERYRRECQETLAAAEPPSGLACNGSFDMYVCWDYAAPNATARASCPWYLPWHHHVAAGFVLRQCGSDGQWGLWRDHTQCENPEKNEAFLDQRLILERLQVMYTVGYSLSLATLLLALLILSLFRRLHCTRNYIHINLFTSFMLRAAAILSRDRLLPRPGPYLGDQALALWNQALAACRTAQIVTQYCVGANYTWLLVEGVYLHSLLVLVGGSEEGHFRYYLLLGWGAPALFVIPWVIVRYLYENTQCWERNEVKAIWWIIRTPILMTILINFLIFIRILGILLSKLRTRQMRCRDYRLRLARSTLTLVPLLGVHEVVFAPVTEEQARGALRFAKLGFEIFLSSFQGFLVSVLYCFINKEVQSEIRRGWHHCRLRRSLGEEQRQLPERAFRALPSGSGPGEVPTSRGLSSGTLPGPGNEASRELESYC
Protocol: On day 1, CHO-K1 cells were plated at 1.5 million cells per T75 flask in 90% F12-K media supplemented with 10% FBS. On day 3 cells were transfected with 40 mcg of each expression plasmid using Lipofectamine 2000 transfection reagent. On day 5, cells were dispensed at 1000 cells per well in white 384-well OptiPlates in 5 mcL of assay buffer consisting of 1×HBSS, 5 mM HEPES, 0.5 mM IBMX, and 0.1% casein.
Peptides were serially diluted 4-fold in assay buffer to final concentrations ranging from 1×10^−9 M to 9.5×10^−16 M. Two assay controls consisting of 50 mcM forskolin (cAMP system maximum) or assay buffer only (cAMP system minimum) were also prepared. Five microliters of each peptide-concentration, or assay control, was added to triplicate wells and incubated for thirty minutes at room temperature. […] Plates were read on an Envision fluorescent plate reader (PerkinElmer).
Test values were first normalized to the system maximum and system minimum averaged values in Excel using the formula: (test value−system min average)/(system max average -system min average)*100. […] Data from up to 3 replicate tests were analyzed for each peptide. […]

[3] = Intravenous infusion pharmacokinetics in rats; assay type: in vivo; settings: rat, plasma, IV infusion 0.033 mg/kg, male Sprague-Dawley rats
Protocol: Peptides were dissolved in 0.05% Tween-20 in phosphate buffered saline and administered as a 1-hour intravenous infusion to non-fasted male Sprague-Dawley rats (n=3 per group) via femoral vein cannula at a final dose of 0.033 mg/kg. Formulations were administered at a rate of 1.67 mL/kg/h. Blood samples (approximately 250 μL) were collected for pharmacokinetic analysis via a jugular vein cannula at 0.25, 0.5, 0.75, 1, 1.17, 1.33, 1.5, 2, 4, 8, 24, 48, 72, and 96 hours post-start of infusion into microtainer tubes containing K2EDTA as anticoagulant and 25 μL of a protease inhibitor cocktail. Plasma was prepared by centrifugation and stored at −80° C. until analysis.
A 70 μL aliquot of each plasma sample was placed into to a 96-well plate. To each well was added 210 μL of 0.1% TFA in 2:1 ethanol:acetonitrile containing an appropriate internal standard. Plates were vortex mixed for 10 min at 1300 rpm, and then centrifuged for 10 min at 500× g. Supernatants (210 μL) were placed into a clean 96-well plate and evaporated under a nitrogen stream at 45° C. Residues were reconstituted in 80 μL of 20% acetonitrile (aq) containing 0.1% formic acid.
All calibration standards were prepared in control rat plasma containing K2EDTA and protease inhibitor cocktail.
Samples and standards were analyzed by electrospray ionization (ESI) UPLC-MS/MS using a system consisting of a CTC HTS PAL auto-injector (Leap, Carrboro, NC), an Agilent Infinity 1290 system with column oven (Palo Alto, CA), a Valco switching valve (Houston, TX), and a Sciex TripleTOF® 5600 mass spectrometer (Framingham, MA). Samples were injected onto a 2.1×50 mm reverse phase C18 analytical column, typically a Waters CORTECS UPLC C18+, 1.6 μm (Waters Corporation, Milford, MA) or similar. […] Initial conditions consisted of 95% A and 5% B. The organic component was increased to 95% B over a period of 3-4 minutes, depending on the peptide. Typical flow rates were 550 μL/min. The column temperature was held constant at 45° C. Peptides were quantified by monitoring one or more product ions produced from a multiply charged parent ion.

## CC(C)C[C@H](NC(=O)[C@H](Cc1ccc(O)cc1)NC(=O)[C@H](CCCCN)NC(=O)[C@H](CO)NC(=O)[C@H](Cc1ccc(O)cc1)NC(=O)[C@H](CC(=O)O)NC(=O)[C@H](CO)NC(=O)[C@@H](NC(=O)[C@H](Cc1ccccc1)NC(=O)[C@@H](NC(=O)CNC(=O)[C@H](Cc1c[nH]cn1)NC(=O)[C@H](CO)NC(=O)[C@@H](N)Cc1ccc(O)cc1)[C@@H](C)O)[C@@H](C)O)C(=O)N[C@@H](CC(=O)O)C(=O)NC(C)(C)C(=O)N[C@@H](CCCCN)C(=O)N[C@@H](Cc1ccc(O)cc1)C(=O)N[C@@H](C)C(=O)N[C@@H](CCC(N)=O)C(=O)N[C@@H](CCCCNC(=O)CC[C@H](NC(=O)CC[C@H](NC(=O)COCCOCCNC(=O)CCCCCCCCCCCCCCCCCCC(=O)O)C(=O)O)C(=O)O)C(=O)N[C@@H](Cc1ccccc1)C(=O)N[C@H](C(=O)NC(C)(C)C(=O)N[C@@H](Cc1c[nH]c2ccccc12)C(=O)N[C@@H](CC(C)C)C(=O)N[C@@H](CCC(=O)O)C(=O)N[C@@H](CC(=O)O)C(=O)N[C@@H](CCC(=O)O)C(=O)N1CCC[C@H]1C(=O)N[C@@H](CO)C(=O)N[C@@H](CO)C(=O)NCC(=O)N[C@@H](C)C(=O)N1CCC[C@H]1C(=O)N1CCC[C@H]1C(=O)N1CCC[C@H]1C(=O)N[C@@H](CO)C(=O)O)C(C)C [Compound A6] (H-YSHGTFTSDYSKYLD[Aib]KYAQK([γGlu-γGlu-AEEA-C20 diacid])FV[Aib]WLEDEPSSGAPPPS-OH; N-terminus assumed)
[1]
  Activity (as EC50 values) cGCGR: 9.77
[2]
  EC50: > 1 nM
[3]; 1-hour
  clearance: 4.97 mL/h/kg
[3]
  half-life: 13 h
[3]; read-out: Vss
  Vd: 0.0867 L/kg
